Test results as given in patent publication EP3827825A1, “USE OF 3, 4-DIARYLPYRAZOLES AS ANTIBACTERIAL AGENTS” (Wageningen Universiteit, priority 2019, dated 2021).
Values after ≈ are worked out from the molar mass of the structure shown. Read-outs that look alike come from different tables or passages of the source.

Key:
P. multocida = assay: Minimal inhibitory concentration (MIC), double-dilution in broth, OD600; format: cell-based, Pasteurella multocida; details: unit assumed
Outline: (§1)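 MICs came from two-fold broth dilutions from 5 mg/mL DMSO stocks, with 100-fold-diluted overnight cultures incubated overnight/24 h; growth was read at OD600 and the MIC taken as the lowest concentration without growth. For M. marinum, Middlebrook 7H9 broth was used with 3 days at 30 °C.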

E. coli JW5503 = format: cell-based, Escherichia coli; details: unit assumed
Outline: as §1

M. marinum = assay: Minimal inhibitory concentration (MIC), Middlebrook 7H9 broth, 3 days at 30 °C; format: cell-based, Mycobacterium marinum; details: unit assumed
Outline: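 Broth double-dilution, top conc. 50 µg/mL, 2-fold steps; overnight culture diluted 100x as inoculum; 24 h incubation; OD600 read; MIC = lowest conc., no growth. M. marinum: Middlebrook 7H9, 3 days, 30 °C.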

S. aureus Newman = assay: Minimal inhibitory concentration (MIC), double-dilution in broth, OD600; format: cell-based, Staphylococcus aureus Newman; details: unit assumed
Outline: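 Twofold broth dilution series of compound from a DMSO stock, against S. aureus Newman from a 1:100-diluted overnight culture. Plates were incubated for 24 hours, then read at OD600. The MIC is the lowest concentration showing no growth.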

E. faecium Van A = assay: as above; format: cell-based, Enterococcus faecium; details: unit assumed
Outline: as §1

HEK293 = assay: Cell toxicity, Alamar blue assay, 24 hours exposure; format: cell-based; details: for IC50: Homo sapiens
Outline: (§2)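 Alamar blue (resazurin→resorufin) viability in NRK-52E and HEK293 cells after 24 h exposure to HKI compounds at 0.39–500 µg/mL in serum-free medium. Compounds were removed, dye added for 45 min, fluorescence read. Mostly single measurements.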

NRK-52E = assay: as above; format: cell-based; details: for IC50: Rattus norvegicus, read-out: IC50 NRK-52E (50 mg/mL stock)
Outline: as §2

S. suis = assay: Minimal inhibitory concentration (MIC), double-dilution in broth, OD600; format: cell-based, Streptococcus suis; details: unit assumed
Outline: as §1

[1] = HEK293, read-out: IC50 HEK293 (5 mg/mL stock)
[2] = HEK293, read-out: IC50 HEK293 (50 mg/mL stock)

## Oc1ccc(-c2n[nH]c(C(F)(F)F)c2-c2ccc(Br)cc2)c(O)c1 [AND-1, 4-[4-(4-bromophenyl)-5-(trifluoromethyl)-1∼{H}-pyrazol-3-yl]resorcinol]
P. multocida
  MIC P. multocida: 25 µg/mL (≈ 62.6 µM)
E. coli JW5503
  MIC E. coli JW5503: 1.56 µg/mL (≈ 3.91 µM)
M. marinum
  MIC M. marinum: > 50 µg/mL
S. aureus Newman
  MIC S. aureus Newman: 3.13 µg/mL (≈ 7.84 µM)
E. faecium Van A
  MIC E. faecium Van A: 12.5 µg/mL (≈ 31.3 µM)
HEK293; HEK293, 5 mg/mL stock
  IC50 HEK293 (5 mg/mL stock): 6.94
HEK293
  IC50 HEK293 (50 mg/mL stock): 14.7
NRK-52E
  IC50 NRK-52E (50 mg/mL stock): ∼3.86
S. suis
  MIC S. suis: 12.5 µg/mL (≈ 31.3 µM)

## Cc1noc(-c2ccc(O)cc2O)c1-c1ccc(Br)cc1 [AND-3, 4-[4-(4-bromophenyl)-3-methyl-isoxazol-5-yl]resorcinol]
P. multocida
  MIC P. multocida: 50 µg/mL (≈ 144 µM)
E. coli JW5503
  MIC E. coli JW5503: 6.25 µg/mL (≈ 18.1 µM)
M. marinum
  MIC M. marinum: > 50 µg/mL
S. aureus Newman
  MIC S. aureus Newman: 25 µg/mL (≈ 72.2 µM)
E. faecium Van A
  MIC E. faecium Van A: 0.78 µg/mL (≈ 2.25 µM)
HEK293; [1]
  IC50: 12.2 µg/mL (≈ 35.2 µM)
HEK293; [2]
  IC50: 62.9 µg/mL (≈ 182 µM)
NRK-52E
  IC50: ~354 µg/mL (≈ 1020 µM)
S. suis
  MIC S. suis: 50 µg/mL (≈ 144 µM)

## COc1ccc(-c2[nH]nc(C)c2-c2ccc(Br)cc2)c(O)c1 [May-4, 2-[4-(4-bromophenyl)-5-methyl-1∼{H}-pyrazol-3-yl]-5-methoxy-phenol]
P. multocida
  MIC P. multocida: 12.5 µg/mL (≈ 34.8 µM)
E. coli JW5503
  MIC E. coli JW5503: 3.13 µg/mL (≈ 8.71 µM)
M. marinum
  MIC M. marinum: 25 µg/mL (≈ 69.6 µM)
S. aureus Newman
  MIC S. aureus Newman: 6.25 µg/mL (≈ 17.4 µM)
E. faecium Van A
  MIC E. faecium Van A: 12.5 µg/mL (≈ 34.8 µM)
HEK293; [1]
  IC50: 8.96 µg/mL (≈ 24.9 µM)
NRK-52E
  IC50: ~83.7 µg/mL (≈ 233 µM)
S. suis
  MIC S. suis: 6.25 µg/mL (≈ 17.4 µM)

## CCOc1ccc(-c2[nH]nc(C(F)(F)F)c2-c2ccc(Br)cc2)c(O)c1 [May-6, 2-[4-(4-bromophenyl)-5-(trifluoromethyl)-1∼{H}-pyrazol-3-yl]-5-ethoxy-phenol]
P. multocida
  MIC P. multocida: > 50 µg/mL
E. coli JW5503
  MIC E. coli JW5503: 3.13 µg/mL (≈ 7.33 µM)
M. marinum
  MIC M. marinum: 50 µg/mL (≈ 117 µM)
S. aureus Newman
  MIC S. aureus Newman: 1.56 µg/mL (≈ 3.65 µM)
E. faecium Van A
  MIC E. faecium Van A: 3.13 µg/mL (≈ 7.33 µM)
HEK293; [1]
  IC50: 4.53 µg/mL (≈ 10.6 µM)
NRK-52E
  IC50: ~563 µg/mL (≈ 1320 µM)
S. suis
  MIC S. suis: 3.13 µg/mL (≈ 7.33 µM)

## O=[N+]([O-])c1ccc(COc2ccc(-c3n[nH]c(C(F)(F)F)c3-c3ccc(Br)cc3)c(O)c2)cc1 [May-11, 2-[4-(4-bromophenyl)-5-(trifluoromethyl)-1∼{H}-pyrazol-3-yl]-5-(4-nitrobenzyl)oxyphenol]
P. multocida
  MIC P. multocida: > 50 µg/mL
E. coli JW5503
  MIC E. coli JW5503: > 50 µg/mL
M. marinum
  MIC M. marinum: 12.5 µg/mL (≈ 23.4 µM)
S. aureus Newman
  MIC S. aureus Newman: 1.56 µg/mL (≈ 2.92 µM)
E. faecium Van A
  MIC E. faecium Van A: 1.56 µg/mL (≈ 2.92 µM)
HEK293; [2]
  IC50: 6.2 µg/mL (≈ 11.6 µM)
NRK-52E
  IC50: ~3.91 µg/mL (≈ 7.32 µM)
S. suis
  MIC S. suis: 3.13 µg/mL (≈ 5.86 µM)

## NNC(=O)COc1ccc(-c2n[nH]c(C(F)(F)F)c2-c2ccc(Br)cc2)c(O)c1 [May-12, 2-[4-[4-(4-bromophenyl)-5-(trifluoromethyl)-1∼{H}-pyrazol-3-yl]-3-hydroxy-phenoxy]acetohydrazide]
P. multocida
  MIC P. multocida: 50 µg/mL (≈ 106 µM)
E. coli JW5503
  MIC E. coli JW5503: 6.25 µg/mL (≈ 13.3 µM)
M. marinum
  MIC M. marinum: > 50 µg/mL
S. aureus Newman
  MIC S. aureus Newman: 12.5 µg/mL (≈ 26.5 µM)
E. faecium Van A
  MIC E. faecium Van A: 12.5 µg/mL (≈ 26.5 µM)
HEK293; [1]
  IC50: 7.04 µg/mL (≈ 14.9 µM)
NRK-52E
  IC50: 27.2 µg/mL (≈ 57.7 µM)
S. suis
  MIC S. suis: 6.25 µg/mL (≈ 13.3 µM)

## Oc1ccc(-c2n[nH]c(C(F)(F)F)c2-c2ccc(Cl)cc2)c(O)c1 [May-14, 4-[4-(4-chlorophenyl)-5-(trifluoromethyl)-1∼{H}-pyrazol-3-yl]resorcinol]
P. multocida
  MIC P. multocida: 25 µg/mL (≈ 70.5 µM)
E. coli JW5503
  MIC E. coli JW5503: 3.13 µg/mL (≈ 8.82 µM)
M. marinum
  MIC M. marinum: > 50 µg/mL
S. aureus Newman
  MIC S. aureus Newman: 3.13 µg/mL (≈ 8.82 µM)
E. faecium Van A
  MIC E. faecium Van A: 12.5 µg/mL (≈ 35.2 µM)
HEK293; [2]
  IC50: 10.6 µg/mL (≈ 29.9 µM)
NRK-52E
  IC50: 3.04 µg/mL (≈ 8.57 µM)
S. suis
  MIC S. suis: 12.5 µg/mL (≈ 35.2 µM)

## Oc1cc(OCc2ccccc2)ccc1-c1n[nH]c(C(F)(F)F)c1-c1ccc(Br)cc1 [May-15, 5-benzoxy-2-[4-(4-bromophenyl)-5-(trifluoromethyl)-1∼{H}-pyrazol-3-yl]phenol]
P. multocida
  MIC P. multocida: > 50 µg/mL
E. coli JW5503
  MIC E. coli JW5503: > 50 µg/mL
M. marinum
  MIC M. marinum: 12.5 µg/mL (≈ 25.5 µM)
S. aureus Newman
  MIC S. aureus Newman: 1.56 µg/mL (≈ 3.19 µM)
E. faecium Van A
  MIC E. faecium Van A: 3.13 µg/mL (≈ 6.4 µM)
HEK293; [2]
  IC50: 6.9 µg/mL (≈ 14.1 µM)
NRK-52E
  IC50: 5.13 µg/mL (≈ 10.5 µM)
S. suis
  MIC S. suis: 3.13 µg/mL (≈ 6.4 µM)

## COc1ccc(-c2c(-c3ccc(OCC(=O)NN)cc3O)n[nH]c2C(F)(F)F)cc1 [May-17, 2-[3-hydroxy-4-[4-(4-methoxyphenyl)-5-(trifluoromethyl)-1∼{H}-pyrazol-3-yl]phenoxy]acetohy drazide]
P. multocida
  MIC P. multocida: > 50 µg/mL
E. coli JW5503
  MIC E. coli JW5503: 6.25 µg/mL (≈ 14.8 µM)
M. marinum
  MIC M. marinum: > 50 µg/mL
S. aureus Newman
  MIC S. aureus Newman: 25 µg/mL (≈ 59.2 µM)
E. faecium Van A
  MIC E. faecium Van A: 25 µg/mL (≈ 59.2 µM)
HEK293; [1]
  IC50: 15 µg/mL (≈ 35.5 µM)
NRK-52E
  IC50: 22 µg/mL (≈ 52.2 µM)
S. suis
  MIC S. suis: 25 µg/mL (≈ 59.2 µM)

## Oc1cc(OCc2ccc(Br)cc2)ccc1-c1n[nH]c(C(F)(F)F)c1-c1ccc(Cl)cc1 [May-18, 5-(4-bromobenzyl)oxy-2-[4-(4-chlorophenyl)-5-(trifluoromethyl)-1∼{H}-pyrazol-3-yl]phenol]
P. multocida
  MIC P. multocida: > 50 µg/mL
E. coli JW5503
  MIC E. coli JW5503: > 50 µg/mL
M. marinum
  MIC M. marinum: 6.25 µg/mL (≈ 11.9 µM)
S. aureus Newman
  MIC S. aureus Newman: 0.78 µg/mL (≈ 1.49 µM)
E. faecium Van A
  MIC E. faecium Van A: 3.13 µg/mL (≈ 5.98 µM)
HEK293
  IC50 HEK293 (50 mg/mL stock): 4.7
NRK-52E
  IC50 NRK-52E (50 mg/mL stock): 4.568
S. suis
  MIC S. suis: 3.13 µg/mL (≈ 5.98 µM)

## CCOc1ccc(-c2n[nH]c(C(F)(F)F)c2-c2ccccc2OC)c(O)c1 [May-20, 5-ethoxy-2-[4-(2-methoxyphenyl)-5-(trifluoromethyl)-1∼{H}-pyrazol-3-yl]phenol]
P. multocida
  MIC P. multocida: 50 µg/mL (≈ 132 µM)
E. coli JW5503
  MIC E. coli JW5503: 3.13 µg/mL (≈ 8.27 µM)
M. marinum
  MIC M. marinum: 25 µg/mL (≈ 66.1 µM)
S. aureus Newman
  MIC S. aureus Newman: 6.25 µg/mL (≈ 16.5 µM)
E. faecium Van A
  MIC E. faecium Van A: 12.5 µg/mL (≈ 33 µM)
HEK293; [1]
  IC50: 2.1 µg/mL (≈ 5.55 µM)
NRK-52E
  IC50: ~17.6 µg/mL (≈ 46.5 µM)
S. suis
  MIC S. suis: 6.25 µg/mL (≈ 16.5 µM)

## COc1ccc(-c2[nH]nc(C(F)(F)F)c2-c2ccc(Br)cc2)c(O)c1 [May-23, 2-[4-(4-bromophenyl)-5-(trifluoromethyl)-1∼{H}-pyrazol-3-yl]-5-methoxy-phenol]
P. multocida
  MIC P. multocida: 50 µg/mL (≈ 121 µM)
E. coli JW5503
  MIC E. coli JW5503: 3.13 µg/mL (≈ 7.58 µM)
M. marinum
  MIC M. marinum: > 50 µg/mL
S. aureus Newman
  MIC S. aureus Newman: 3.13 µg/mL (≈ 7.58 µM)
E. faecium Van A
  MIC E. faecium Van A: 3.13 µg/mL (≈ 7.58 µM)
HEK293; [1]
  IC50: 8.38 µg/mL (≈ 20.3 µM)
HEK293; [2]
  IC50: 9 µg/mL (≈ 21.8 µM)
NRK-52E
  IC50: ~2.81 µg/mL (≈ 6.81 µM)
S. suis
  MIC S. suis: 6.25 µg/mL (≈ 15.1 µM)

## Oc1cc(OCc2ccccc2)ccc1-c1[nH]nc(C(F)(F)F)c1-c1ccccc1 [May-24, 5-benzoxy-2-[4-phenyl-5-(trifluoromethyl)-1∼{H}-pyrazol-3-yl]phenol]
P. multocida
  MIC P. multocida: > 50 µg/mL
E. coli JW5503
  MIC E. coli JW5503: 25 µg/mL (≈ 60.9 µM)
M. marinum
  MIC M. marinum: 25 µg/mL (≈ 60.9 µM)
S. aureus Newman
  MIC S. aureus Newman: 1.56 µg/mL (≈ 3.8 µM)
E. faecium Van A
  MIC E. faecium Van A: 1.56 µg/mL (≈ 3.8 µM)
HEK293; [2]
  IC50: 4.8 µg/mL (≈ 11.7 µM)
NRK-52E
  IC50: ~3.86 µg/mL (≈ 9.41 µM)
S. suis
  MIC S. suis: 3.13 µg/mL (≈ 7.63 µM)
